Source: patent US12214009B2, “Compositions and methods for improving bruising and rejuvenating skin” (Alastin Skincare, Inc., priority 2019, dated 2025)

What was measured:
[1] = system: dermal and epidermal hyaluronic acid level; conditions: ex vivo human skin model; cited from earlier work
[2] = system: macrophages (RAW-Difluo mLC3 autophagy reporter cells) phagocytosing human red blood cells; assay: Macrophage phagocytosis of red blood cells (heme absorbance); type: cell-based; conditions: FIG. 6; 24 h; peptide alone; tripeptide-1 2.9 ug/mL, hexapeptide-11 100 ug/mL, hexapeptide-12 2.9 ug/mL
Experimental: The assay was performed according to manufacturer's instructions (Cell BioLabs, Inc.). Macrophages used were RAW-Difluo mLC3 autophagy reporter cells. Human red blood cells (RBCs) were obtained from ZenBio (catalog number SER-10MLRBC). Briefly, 24 hours before the assay, macrophages were plated on 96-well plates. One plate was plated with 12,500 macrophages and a second plate with 25,000 macrophages. The day of the assay, human red blood cells (RBCs) were opsonized with human RBC antibody. As a negative control, sheep RBCs were opsonized with human RBC antibody. The media was then replaced with either peptide or no peptide. Blood was added to the plates at a 200:1 RBC to macrophage ratio. Phagocytosis was measured beginning at 2 hours after blood was added. The media and blood were removed from the wells of the plate. The plate was washed once with RBC lysis buffer to remove non-phagocytosed RBCs followed by two washes with PBS. Macrophage lysis buffer was then added to the plate and the lysed solution was transferred to a 96-well plate. The substrate solution to detect heme was added to the 96-well plate and absorbance was recorded at 1 minute, 5 minutes, 10, minutes, and 20 minutes. FIGS. 1B-1C show images of macrophage phagocytosis prior to red blood cell (RBC) washout (FIG. 1B) and after RBC washout (FIG. 1C). Arrows indicate macrophages with RBCs (hollow circles). […]

[3] = Penetration ability log Kow; type: physicochemical
Experimental: A water suspension of liposomes was prepared with 1.5% of hydrophilic molecule A or 300 ppm (0.03%) hydrophilic molecule B, and 27% Pro-Lipo™ Neo. […] Molecule B was a hexapeptide (hexapeptide-38) with a molecular weight of (870 g/mol) and a penetration ability log Kow of −1.13. A water solution with 1.5% A or 300 ppm B was used as a control (non-entrapped molecule).

CCCCCCCC(=O)CCc1ccc(O)c(OC)c1 [Hydroxymethoxyphenyl decanone]
stimulation of dermal hyaluronic acid level versus placebo [1]: 259% | stimulation of epidermal hyaluronic acid level versus placebo [1]: 198%

hexapeptide-11
phagocytosis relative to NT control [2]: decrease or no change

Cn1c(=O)c2c(ncn2C)n(C)c1=O [Molecule A, caffeine]
penetration ability log Kow [3]: −0.07

tripeptide-1
phagocytosis relative to NT control [2]: decrease or no change
